In BindingDB's records for patent US20230295166 (Antengene Discovery, 2023):

Molecular target: Serine/threonine-protein kinase ATR (Homo sapiens, UniProt Q13535)
Experiment: ATR Inhibition Assay
Method: Detection of ATR kinase activity utilized the Mobility shift assay to measure the phosphorylation of the substrate protein FAM-RAD17 (GL, Cat. No. 514318, Lot. No. P19042-MJ524315). The assay was developed and conducted at Chempartner. All the test compounds were dissolved in 100% DMSO at concentration of 20 mM, then prepare compounds and conducted the assay as follows: 1) Transfer […] 20 mM compound to 40 μl of 100% DMSO in a 96-well plate.2) Serially dilute the compound by transferring 20 μl to 60 μl of 100% DMSO in the next well and so forth for a total of 10 concentrations.3) Add 100 μl of 100% DMSO to two empty wells for no compound control and no enzyme control in the same 96-well plate. Mark the plate as source plate.4) Transfer 40 μl of compound from source plate to a new 384-well plate as the intermediate plate.5) Transfer 60 nl compounds to assay plate by Echo.6) Add ATR kinase (Eurofins, Cat. No. 14-953, Lot. No. D14 JP007N) into Kinase base buffer (50 mM HEPES, pH 7.5; 0.0015% Brij-35; 0.01% Triton) to prepare 2 enzyme solution, then add 10 μl of 2 enzyme solution to each well of the 384-well assay plate, incubate at room temperature for 10 min.7) Add FAM-RAD17 and ATP (Sigma, Cat. No. A7699-1G, CAS No. 987-65-5) in the kinase base buffer to prepare 2 peptide solution, then add 10 μl to the assay plate.8) Incubate at 28 C. for specified period of time. […]

Serine/threonine-protein kinase ATR, sequence (Q13535 whole entry): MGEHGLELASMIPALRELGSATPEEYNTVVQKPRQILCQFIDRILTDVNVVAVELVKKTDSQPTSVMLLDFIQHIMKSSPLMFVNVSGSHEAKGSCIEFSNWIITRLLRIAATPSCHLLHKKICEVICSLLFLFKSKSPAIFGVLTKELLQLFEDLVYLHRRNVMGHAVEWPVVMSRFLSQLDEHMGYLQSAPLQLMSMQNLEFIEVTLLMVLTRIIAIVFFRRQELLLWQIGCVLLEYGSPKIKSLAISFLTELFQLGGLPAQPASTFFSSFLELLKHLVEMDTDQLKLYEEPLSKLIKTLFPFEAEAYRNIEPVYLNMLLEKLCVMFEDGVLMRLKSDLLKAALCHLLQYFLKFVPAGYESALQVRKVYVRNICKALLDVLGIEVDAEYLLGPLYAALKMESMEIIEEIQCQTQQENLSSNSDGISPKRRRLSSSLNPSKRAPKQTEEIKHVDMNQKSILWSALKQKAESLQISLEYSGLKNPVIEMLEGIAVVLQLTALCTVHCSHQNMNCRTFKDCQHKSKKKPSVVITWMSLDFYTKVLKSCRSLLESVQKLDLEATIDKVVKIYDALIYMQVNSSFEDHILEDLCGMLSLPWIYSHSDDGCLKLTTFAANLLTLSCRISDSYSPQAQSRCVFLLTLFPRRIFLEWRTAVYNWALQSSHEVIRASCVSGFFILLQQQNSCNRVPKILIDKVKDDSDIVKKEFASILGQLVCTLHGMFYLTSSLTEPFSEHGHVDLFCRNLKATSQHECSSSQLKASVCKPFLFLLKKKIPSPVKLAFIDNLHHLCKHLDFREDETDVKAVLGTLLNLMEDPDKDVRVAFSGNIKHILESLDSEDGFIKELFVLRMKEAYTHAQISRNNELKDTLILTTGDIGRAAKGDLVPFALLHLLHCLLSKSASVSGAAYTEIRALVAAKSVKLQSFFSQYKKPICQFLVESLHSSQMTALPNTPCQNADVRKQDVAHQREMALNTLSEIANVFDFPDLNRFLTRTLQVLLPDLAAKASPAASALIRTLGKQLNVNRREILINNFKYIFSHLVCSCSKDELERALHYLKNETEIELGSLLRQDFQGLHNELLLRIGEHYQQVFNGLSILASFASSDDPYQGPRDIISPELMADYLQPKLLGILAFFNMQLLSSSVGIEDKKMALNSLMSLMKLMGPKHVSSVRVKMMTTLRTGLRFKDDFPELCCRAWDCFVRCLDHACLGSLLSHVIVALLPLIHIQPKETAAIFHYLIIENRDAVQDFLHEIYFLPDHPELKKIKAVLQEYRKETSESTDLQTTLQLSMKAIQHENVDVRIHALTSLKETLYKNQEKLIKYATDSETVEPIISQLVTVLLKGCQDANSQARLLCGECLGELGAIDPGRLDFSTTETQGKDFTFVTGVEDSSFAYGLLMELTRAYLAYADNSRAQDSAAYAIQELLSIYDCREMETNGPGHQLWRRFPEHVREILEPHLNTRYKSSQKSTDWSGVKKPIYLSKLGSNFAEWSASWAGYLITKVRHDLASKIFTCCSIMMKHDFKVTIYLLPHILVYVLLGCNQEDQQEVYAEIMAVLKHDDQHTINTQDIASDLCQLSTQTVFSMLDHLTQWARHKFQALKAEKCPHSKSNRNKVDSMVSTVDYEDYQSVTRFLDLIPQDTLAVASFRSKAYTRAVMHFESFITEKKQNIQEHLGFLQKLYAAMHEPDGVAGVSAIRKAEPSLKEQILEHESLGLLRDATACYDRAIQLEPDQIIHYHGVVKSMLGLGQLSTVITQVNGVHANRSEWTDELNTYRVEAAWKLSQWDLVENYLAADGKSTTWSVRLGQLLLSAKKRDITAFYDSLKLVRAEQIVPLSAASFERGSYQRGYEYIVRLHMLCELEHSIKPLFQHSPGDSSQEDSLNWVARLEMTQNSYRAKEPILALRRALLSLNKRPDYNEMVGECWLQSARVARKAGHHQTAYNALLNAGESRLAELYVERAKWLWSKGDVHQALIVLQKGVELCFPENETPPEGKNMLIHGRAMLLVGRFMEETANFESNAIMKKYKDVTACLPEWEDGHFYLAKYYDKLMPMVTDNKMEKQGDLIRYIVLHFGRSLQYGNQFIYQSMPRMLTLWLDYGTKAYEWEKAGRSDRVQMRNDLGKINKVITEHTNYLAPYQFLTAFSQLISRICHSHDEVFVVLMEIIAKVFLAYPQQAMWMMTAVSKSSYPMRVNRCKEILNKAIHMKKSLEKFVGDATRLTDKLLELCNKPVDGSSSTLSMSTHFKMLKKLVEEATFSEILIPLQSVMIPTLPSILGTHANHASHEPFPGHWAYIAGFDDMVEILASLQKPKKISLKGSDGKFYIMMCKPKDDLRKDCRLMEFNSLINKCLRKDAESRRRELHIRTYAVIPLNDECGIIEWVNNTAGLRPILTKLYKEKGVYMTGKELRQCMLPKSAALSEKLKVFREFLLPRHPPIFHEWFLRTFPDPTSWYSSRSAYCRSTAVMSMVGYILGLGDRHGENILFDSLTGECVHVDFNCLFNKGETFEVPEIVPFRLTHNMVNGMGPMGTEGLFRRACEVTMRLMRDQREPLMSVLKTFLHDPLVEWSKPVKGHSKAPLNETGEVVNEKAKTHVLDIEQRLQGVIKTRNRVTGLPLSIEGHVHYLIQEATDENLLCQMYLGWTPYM

IC50 [nM] | Structure (SMILES)
< 100 | C[C@@H]1COCCN1c1cc(-c2ccnn2C)c2c(Cl)nc(-c3ccn[nH]3)n2n1 [US20230295166, Compound 61]
< 100 | Cc1cc(-c2nsc3c(N4CCCCS4(=O)=O)cc(N4CCOC[C@H]4C)nc23)[nH]n1 [US20230295166, Compound 82]
